{"source": "patent US9949953B2", "about": "“Topical compositions comprising fipronil and permethrin and methods of use” (priority 2012, dated 2018)", "system": "Stomoxys calcitrans", "experiment": "Stable fly repellency and parasiticidal (diptericidal) efficacy on rats (Example 1)", "format": "in vivo", "experimental": "This study evaluated the effectiveness of a formulation of the invention containing fipronil and permethrin to repel and kill Stomoxys calcitrans on rats after a single administration. Rats in the treatment group (Group 2) were treated once on Day 0 with a topical formulation of the invention containing 9.2 (w/w) fipronil and 41.5% (w/w) permethrin in a solvent system containing DMDA and DGME in a ratio of 0.73:1, DMDA to DGME, to deliver a dose of 30 mg/kg permethrin and 6.7 mg/kg fipronil. Rats in Group 3 were treated with a formulation containing permethrin alone to deliver a dose of 30 mg/kg. The two treatment groups were compared with a control group treated with a solvent system placebo.\nFlies are exposed to the treated rats for 1 hr., then removed. Dead flies are counted at the end of the exposure period and at 4 hr and 24 hr post-exposure. […] This finding is significant because fipronil is not known to have repellent activity.\nThe diptericidal efficacy of the formulations is shown in Table 1 and represented in FIG. 6. The data for repellency are shown in Table 2 and are represented in FIG. 7.", "data": [{"smiles": "CC1(C)C(C=C(Cl)Cl)C1C(=O)OCc1cccc(Oc2ccccc2)c1", "note": "(stereo not shown) [Permethrin]", "values": [{"measurement": "4 hr % efficacy", "setting": "dead flies 4 hr post-exposure, single topical treatment Day 0", "result": 82.0, "unit": "%"}, {"measurement": "24 hr % efficacy", "setting": "dead flies 24 hr post-exposure, single topical treatment Day 0", "result": 74.7, "unit": "%"}, {"measurement": "EOE % efficacy", "setting": "dead flies at end of 1 hr exposure period, single topical treatment Day 0", "result": 74.2, "unit": "%"}, {"measurement": "% Repellency", "setting": "single topical treatment Day 0, measured 24 hours after exposure", "result": 41.2, "unit": "%"}]}]}
